Structures are written as SMILES. Residues, ends and D or L forms follow the SMILES beside them. *: point of attachment. Boc = CC(C)(C)OC(=O)*; Bn = c1ccc(C*)cc1 Bounds are passed on as bounds.

As a reminder, the melting point is the temperature, or range, at which the solid turns liquid.

In the case of `COc1cc(OCCN2CCOCC2)c(C=CC(=O)c2ccc(S(N)(=O)=O)cc2)cc1-c1cccs1`, the melting point lay in the range of 186 to 188 °C. On to `Clc1ccc2[nH]c(-c3ccccc3)cc2c1`, for which the melting point lay in the range of 195 to 196 °C. As to `O=C1CCCC2=C1C(c1ccc(Cl)c(C(F)(F)F)c1)C1=C(CCS1)N2` (single isomer, unassigned; (+)), the melting point is over 250 °C. Next, `CCCCCCCCCCc1ccnc(C(=O)NCC(=O)O)c1`: 79 to 81 °C; `CC(C)(C)c1cc(C(=O)COc2ccc(Cl)cc2Oc2ccc(Cl)cc2Cl)cc(C(C)(C)C)c1O`: 111 to 114 °C; `COc1cc(-c2nc(C)ncc2Br)c(F)cc1Cl`: 106 to 107 °C. The molecule `c1cc2c3c(ccc2[nH]1)NCC3` gave a melting point of 183 to 186 °C. As to `N#Cc1ccc(C2CCN(Cc3ccccc3)C2)cc1` (configuration not stated), the melting point was 78 to 79 °C. In the case of `NP(N)(=S)N1CCCC1` it was 95 to 99 °C; in that of `SC1=NC2(CO1)COC(S)=N2`, 200 to 202 °C; in that of `CCNC(=O)OCCOc1ccc(Oc2ccc(F)cc2)cc1`, 60 to 62 °C.

On to `CS(=O)CC(=O)c1cc(-c2ccccc2)on1` (configuration not stated), for which the melting point lay in the range of 164 to 166 °C. In the case of `CC(C)(F)C1COCc2nc3c(N)nc4c(c3n21)CCCC4` (configuration not stated) it was 196 to 197 °C. In the case of `Nc1ncc2c(n1)N(c1ccccc1)C(=O)N(c1c(Cl)cccc1Cl)C2` it was over 300 °C; in that of `CCOC(=O)Cc1ccc(-c2nc(COc3ccc(COc4nn(-c5ccccc5)cc4/C=C\c4cncn4CC)cc3OC)c(C)o2)cc1`, 85 to 86 °C.

Molecule `C=CCC(C(=O)NCC#CCN(C)C)(c1ccccc1)c1ccccc1` came in with a melting point of 107 to 109 °C.

For the molecule `Cc1ccc2c(n1)CC(c1ccccc1)CC2=O` (configuration not stated), the melting point was in the range of 79 to 81 °C.

In the case of `CC(=O)Nc1ccc(OCc2nc3ccccc3s2)cc1`, the melting point was in the range of 168 to 170 °C. As for `CC1=C(c2ccc(C(=O)N3Cc4cccn4Cc4ccccc43)cc2)CCCC1`, the melting point fell in the range of 119 to 120 °C. Regarding `CCN(CC)CCNC(=O)c1ccc(S(N)(=O)=O)cc1`, the melting point fell in the range of 174 to 176 °C. Next, `COc1ccc(-c2cc(O)nc(C)n2)cc1`: 270 to 272 °C. Next, `CC(C)(C)c1ccc(Sc2ccc([N+](=O)[O-])cc2)cc1`: 65 to 66 °C; `O=C1c2ccccc2C(=O)N1C1CCN(CCCc2c[nH]c3ccccc23)CC1`: 187 to 190 °C. In the case of `CCC(Cl)c1nc2c(C(F)(F)F)cccc2c(=O)o1` (configuration not stated) it was 65 to 70 °C; in that of `NC(=C[N+](=O)[O-])NCc1ccc(Cl)cc1`, 215 to 216 °C.

As for `COc1ccc(Cl)cc1-c1nccn1-c1ccccc1`, the melting point fell in the range of 97 to 102 °C.

Consider `COC(=O)c1ccccc1S(=O)(=O)NC(=O)n1nc(SC)n(C)c1=O`, for which the melting point came out at 184 °C.

Take `CC1(C)NC(C)(C)c2ccccc21`: the melting point lay in the range of 36 to 38 °C. Molecule `Cc1cc2c(cc1N)C(C)(C)CCC2(C)C` yielded a melting point of 94 to 95 °C. `CC(=O)OC1CSC(Oc2cncc(S(=O)(=O)c3ccccc3)c2)C(OC(C)=O)C1OC(C)=O` (configuration not stated) registered a melting point of 97 to 99 °C. Next, `N#CC(C(=O)c1ccc(C(F)(F)F)cc1S(=O)(=O)C1CCCCC1)C(=O)C1CC1` (configuration not stated): 60 to 62 °C. Next, `Cn1cnc2ccc(N/C(=C3\C(=O)Nc4ccccc43)c3ccccc3)cc21`: 163 to 165 °C; `COc1ccc(-c2c(NCCc3cccc(C(F)(F)F)c3)c(=O)c2=O)cc1`: 220 to 222 °C. `CCCc1nccn1S(=O)(=O)c1c[nH]cn1`: the melting point lay in the range of 163 to 164 °C. In the case of `O=Cc1cc(Cl)ccc1OCCc1ccccc1` it was 73 to 74 °C. `CCC(OC(=O)c1ccccc1)c1nc2c(C(F)(F)F)cccc2c(O)c1C(=O)Nc1nccs1` (configuration not stated) gave a melting point of 230 °C.

The molecule `O=C(NCC1CCC(CNS(=O)(=O)c2ccc3ccccc3c2)CC1)C1CCc2ccccc2C1` (configuration not stated) registered a melting point of 225 to 226 °C.

Molecule `Cc1sc(Cc2ccccc2)c(-c2ccc(-c3ccc(OC(Cc4ccccc4)C(=O)O)cc3)cc2)c1C` (configuration not stated) had a melting point of 142 to 144 °C. Next, `CCCc1c(OCc2ccc(C(=O)O)cc2F)ccc(C(C)=O)c1O`: 203 to 206 °C.

In turn, `CN(C)CCCOc1ccc(-c2nnc(Cc3ccc(Oc4ccccc4)cc3)o2)cc1` displayed a melting point of 156 to 158 °C. Next, `CCCCCOc1ccc(-c2ccc(-c3ccccc3CC)cc2)cc1`: 62 to 65 °C; `CCCCCCN(O)C(=O)N(C)C`: 19 to 20 °C. Consider `Cc1[nH]c(-c2ccccc2)c2nc[nH]c(=O)c12`, for which the melting point was in the range of 295 to 296 °C. Consider `O=c1c(-c2ccc(F)cc2)c(-c2ccc(SC(F)(F)F)cc2)cnn1Cc1ccccc1`, for which the melting point is 145 to 146 °C. In the case of `Cn1cc2c(c1-c1ccccc1)C(=O)c1ccccc1C2=O` it was 268 to 271 °C. In turn, `COC(=O)C(CO)N(Cc1ccc(Cl)cc1N)S(=O)(=O)c1ccc(OC)cc1` (configuration not stated) showed a melting point of 99 to 112 °C. Next, `COc1ccc(N2CCN(CCC3CN(C)C(=O)O3)CC2)cc1` (configuration not stated): 103 to 104 °C.

For the molecule `COc1cc2c(cc1OC)CN(CN1CCc3cc(OC)c(OC)cc3C1)CC2`, the melting point stood at 126 °C. `NC(=O)c1ccccc1N1CCc2cc(Br)ccc21` displayed a melting point of 120 to 122 °C. Molecule `COc1ccc2c(c1)C1=C(SCC3(CCN(Cc4ccc(F)cc4)CC3)O1)C(=O)C2=O` yielded a melting point of 196 to 197 °C. Regarding `O=C(O)c1c(F)cccc1-c1ccccc1`, the melting point lay within 122 to 125 °C. `OC(CN1CCC(c2ccc(F)cc2)CC1)CN1CCC(c2ccc(F)cc2)CC1` displayed a melting point of 79 to 80 °C. Molecule `Cc1ccc(C(=O)Cn2cncn2)cc1` showed a melting point of 118 °C. `CC(C)NC(=O)c1c(NC(=O)c2cc(C(F)(F)F)nn2-c2ncccc2Cl)c(C#N)cc2cn[nH]c12`: the melting point was 226 to 229 °C. Next, `CCOC(=O)c1[nH]c(-c2ccc(Cl)cc2)nc1C`: 237 to 238 °C. The molecule `CCOC(=O)Cc1c(C(=O)OCC)c(C)cn1C` came in with a melting point of 71 to 72 °C. The molecule `CCOCc1nc2c(N)nc3ccccc3c2n1CCCCC(=O)N1CCOCC1` had a melting point of 128 to 129 °C. For `CC1(C)NC(=O)N(CC(CS(=O)(=O)c2ccc(-c3ccc(Cl)cc3)cc2)C(=O)O)C1=O` (configuration not stated), the melting point was in the range of 242 to 245 °C.

As to `C=CCc1cc2c(c(CC=C)c1O)CCC(=O)N2`, the melting point is 118 to 119 °C. Next, `CCCCCCCCCCCC1Cc2cc(C(=O)O)ccc2N1C` (racemic): 102 to 104 °C; `CC(C)C[C@@H](OS(=O)(=O)c1ccc([N+](=O)[O-])cc1)C(=O)O`: 60 to 62 °C. For `CCC1CCCCCc2c1oc(=O)c(C(c1ccccc1)C1CC1)c2O` (configuration not stated), the melting point lay within 94 to 98 °C. Regarding `CCC(C#N)c1nsc2ccc(-n3c(=O)cc(C(F)(F)F)n(C)c3=O)cc12` (configuration not stated), the melting point fell in the range of 107 to 109 °C. In the case of `O=C(NCCCC(F)(F)F)C(c1ccccc1)c1ccccc1` it was 166 °C; in that of `N#Cc1nn(-c2c(Cl)cc(C(F)(F)F)cc2Cl)c(N)c1C(F)(F)F`, 191 to 193 °C; in that of `CCCCNC(=O)C(O[Si](C)(C)C(C)(C)C)C(C)(C)C` (configuration not stated), 41 to 42 °C. In the case of `N#Cc1cnc2c(sc3ccccc32)c1Nc1cccc(Br)c1` it was 240 to 242 °C; in that of `CC(C)(C)c1ccc(S(=O)(=O)N2c3ccccc3C[C@H]2C(=O)NCc2ccc(CC(=O)O)cc2)cc1`, 80 to 85 °C; in that of `CC1(C)OC2C(Br)=CC(CC(N)=O)C(Br)C2O1` (configuration not stated), 181 °C. Next, `CC(C)(C)c1cc(C2SCC(=O)N2CCC(=O)O)cc(C(C)(C)C)c1O` (configuration not stated): 164 to 165 °C; `C=CCC12CCN=C1C(Br)Cc1ccc(OC)cc12` (configuration not stated): 112 to 117 °C; `CC(C)(C)C(NC(=O)c1ccc(Br)cc1)NC(=NC#N)Nc1cccnc1` (configuration not stated): 180 to 181 °C. Molecule `O=C1C(=Cc2ccccc2)C(=O)c2ccccc21` yielded a melting point of 150 °C.

`N#Cc1cnn2c1NCCC2`: the melting point was 206 to 207 °C. Next, `CC(C)Cc1c(Cl)sc2[nH]c(=O)c(=O)[nH]c12`: over 270 °C; `CCc1nn2c(-c3ccc(Cl)cc3Cl)cccc2c1[N+](=O)[O-]`: 147 to 149 °C; `CC(C)Nc1c(-c2ccc(S(C)(=O)=O)cc2)cnn(Cc2ccccc2)c1=O`: 146 to 147 °C.

Turning to `CCOC(=O)NN=C(c1ccc(Cl)cc1)c1ccc(CSC)cc1`, the melting point is 105 to 109 °C. Next, `CCOC(=O)/C=C/c1c(-c2ccc(F)cc2)n(CCF)c(=O)c2ccccc12`: 136 to 137 °C; `Cn1cc(Br)cc(Br)c1=O`: 87 to 88 °C; `O=C(NC1CC1)c1ccc(N2CCNCC2)c(F)c1`: 141 to 143 °C. In the case of `CCOc1ccc2c(c1)C(C)(c1cc(C(=O)ON3C(=O)CCC3=O)ccc1Cl)C(=O)N2S(=O)(=O)c1ccc(C(=O)NC(C)(C)C)cc1` (configuration not stated) it was 168 °C; in that of `CCOCCCOc1ccc(-c2ccc3c(c2)C=C(C(=O)OC)CCN3)cc1`, 99 to 102 °C; in that of `O=C(O)c1cnc2n(c1=O)CCC=C2Nc1ccccc1`, 197 to 198 °C.

In turn, `Cn1ncc(/C=C/C(=O)Nc2ccc(CC(C)(C)O)cc2)c1-c1ccc(F)cc1` showed a melting point of 188 to 189 °C. In the case of `CC(C1CC1)C1NNC(=S)N(N)C1=O` (configuration not stated) it was 142 to 143 °C; in that of `COCC(=O)Oc1ccc(C=CNC(C)=O)cc1`, 169 to 170 °C. In the case of `COC(=O)C(CC(C)C)NC(=O)C(C)NC(=O)C(Cc1ccc(OCc2ccccc2)cc1)NC(=O)OC(C)(C)C` (stereo not drawn) (Boc-Tyr(Bn)-Ala-Leu-OMe; configuration not given here) it was 128 to 129 °C; in that of `Nc1cc(C(=O)O)cc(S)c1Oc1ccccc1`, 199 to 200 °C. In the case of `Nc1nc2ccccc2n1-c1ccc(I)cc1` it was 212 to 214 °C. `O=C(O)c1ccc(OC2CC2)cc1` came in with a melting point of 153 to 155 °C. On to `C=CCc1cccc(C[C@H](NC(=O)OC(C)(C)C)[C@H](O)CCl)c1`, for which the melting point fell in the range of 123 to 126 °C.

Source of the values: a melting point compilation (Tetko et al.; mined from patent text by program, amines drawn as free bases though some values may be those of a salt).
